Assay results reported in article PMC3731299, “Isoniazid Inhibits the Heme-Based Reactivity of Mycobacterium tuberculosis Truncated Hemoglobin N” (PLoS ONE, 2013).
pKd: −log10 of the molar value. Where two headings read alike, the source gives them in different places. Marks after values point to notes of the source that are not given here.

Experiments:
Sperm whale Mb(II) [1] = tested on: Sperm whale Mb(II); design: method as in PMID 3733708; settings: pH 7.0, 20.0°C; cited from earlier work
Mt-trHbN(II) [2] = biological target: T1, Mt-trHbN(II) (Mycobacterium tuberculosis, UniProt P9WN25); assay type: binding
T1 construct: made in house

Sperm whale Mb(II) [3] = biological target: Sperm whale Mb(II); design: method as in ref 58 = [58]; 58 Antonini E, Brunori M (1971) Hemoglobin and myoglobin in their reactions with ligands. Amsterdam, London: North Holland Publishing Co.; settings: read-out: B for O2 binding to sperm whale Mb(II); pH 7.0, 20.0°C; cited from earlier work
Mt-trHbN(II) [4] = biological target: T1, Mt-trHbN(II); test: O2 binding to Mt-trHbN(II) in the absence and presence of isoniazid (tonometer method)
Description: The value of B was determined by the tonometer method adding small volumes of air to the Mt-trHbN(II) solution (1.3×10^−6 M), in the absence and presence of isoniazid ( = 1.0×10^−2 M; B ^obs).

| SMILES | f off for CO binding to sperm whale Mb(II) (Sperm whale Mb(II) [1]) | f on for CO binding to sperm whale Mb(II) (Sperm whale Mb(II) [1]) | amplitude (1 – a) of the CO binding process (slow phase) (Mt-trHbN(II) [2]) | amplitude a of the CO binding process (Mt-trHbN(II) [2]) | amplitude a of the CO binding process (isoniazid-free fraction, fast phase) (Mt-trHbN(II) [2]) | f obs, pseudo-first order rate constant for CO binding (Mt-trHbN(II) [2]) | f obs, pseudo-first order rate constant for CO binding (fast phase) (Mt-trHbN(II) [2]) | f obsi, pseudo-first order rate constant for CO binding in the presence of isoniazid (slow phase) (Mt-trHbN(II) [2]) | second-order association rate constant f on for CO binding to Mt-trHbN(II) (Mt-trHbN(II) [2]; pH 7) | pKd (Sperm whale Mb(II) [3]) | pKd (Mt-trHbN(II) [4]; [isoniazid] = 1.0×10^−2 M, from B and D, read-out: B obs calculated according to Equation 16) | P 50 for O2 binding to Mt-trHbN(II) in the presence of isoniazid (Mt-trHbN(II) [4]; [isoniazid] = 1.0×10^−2 M, corresponds to B obs) | P 50 for O2 binding to Mt-trHbN(II) (Mt-trHbN(II) [4]; absence of isoniazid, corresponds to B) | pKd (Mt-trHbN(II) [4]; read-out: dissociation equilibrium constant B for O2 binding to Mt-trHbN(II), absence of isoniazid, pH 7.0, 20.0°C, Equation 15) |
| --- | --- | --- | --- | --- | --- | --- | --- | --- | --- | --- | --- | --- | --- | --- |
| [C-]#[O+] [CO] | f off = 1.9×10^−2 s^−1h | f on = 5.1×10^5 M^−1 s^−1 ^h | 0.62 | 1 | 0.38 | 170 s⁻¹ | 170 s⁻¹ | 1.5 s⁻¹ | f on = (3.8±0.5)×10^6 M^−1 s^−1 |  |  |  |  |  |
| O=O [O2] |  |  |  |  |  |  |  |  |  | 6.28 | 6.39 | (2.3±0.3)×10^−1 mm Hg | (2.4±0.4)×10^−2 mm Hg | 7.36 |
